Test results reported in publication PMC7311426, “An amphipathic peptide with antibiotic activity against multidrug-resistant Gram-negative bacteria” (Nature Communications, 2020).
Converted amounts (≈) assume the structure as drawn.

Experiments:
Experiment in all cases: microbe, parasite or virus in culture
[1] = tested on: E. coli
Summary of the method: (§1)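 Broth microdilution in MHB, 2-fold 12-point series from 128 or 64 down to 0.06 or 0.03 μg mL^−1, 5 × 10^5 CFU mL^−1. Extra runs in CAMHB per CLSI and in MHB with 1% agarose; n ≥ 6.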

[2] = tested on: K. pneumoniae
Summary of the method: as §1

[3] = tested on: P. aeruginosa
Summary of the method: as §1

## C[C@H]1[C@H](NC(=O)/C(=N\OC(C)(C)C(=O)O)c2csc(N)n2)C(=O)N1S(=O)(=O)O [AZT]
[1]; E. coli AUD172 parent strain not exposed to drug
  MIC, broth microdilution: >32 µg/mL
[1]; E. coli AUD172 spontaneous mutant, AA139 selection 4X, plate 2, colony 2, drug-free passage 1
  MIC, broth microdilution: >32 , >32 µg/mL
[1]; E. coli AUD172 spontaneous mutant, AA139 selection 4X, plate 2, colony 2, drug-free passage 5
  MIC, broth microdilution: >32 , >32 µg/mL
[2]; K. pneumoniae 3010 parent strain not exposed to drug
  MIC, broth microdilution: 0.06 µg/mL (≈ 0.138 µM)
[2]; K. pneumoniae ST258 parent strain not exposed to drug
  MIC, broth microdilution: >32 µg/mL
[2]; K. pneumoniae ST258 spontaneous mutant, AA139 selection 4X, plate 1, colony 1, drug-free passage 1
  MIC, broth microdilution: >32 , >32 µg/mL
[2]; K. pneumoniae ST258 spontaneous mutant, AA139 selection 4X, plate 1, colony 1, drug-free passage 5
  MIC, broth microdilution: >32 , >32 µg/mL
[3]; P. aeruginosa ATCC 27853 parent strain not exposed to drug
  MIC, broth microdilution: 4 µg/mL (≈ 9.19 µM)
[3]; P. aeruginosa ATCC 27853 spontaneous mutant, AA139 selection 4X, plate 1, colony 1, drug-free passage 1
  MIC, broth microdilution: 4, 4 µg/mL
[3]; P. aeruginosa ATCC 27853 spontaneous mutant, AA139 selection 4X, plate 1, colony 1, drug-free passage 5
  MIC, broth microdilution: 4, 4 µg/mL
[3]; P. aeruginosa ATCC 27853 spontaneous mutant, AA139 selection 4X, plate 1, colony 2, drug-free passage 1
  MIC, broth microdilution: 8 µg/mL (≈ 18.4 µM)
[3]; P. aeruginosa ATCC 27853 spontaneous mutant, AA139 selection 4X, plate 1, colony 2, drug-free passage 5
  MIC, broth microdilution: 4 µg/mL (≈ 9.19 µM)
[3]; P. aeruginosa ATCC 27853 spontaneous mutant, AA139 selection 4X, plate 1, colony 3, drug-free passage 1
  MIC, broth microdilution: 4 µg/mL (≈ 9.19 µM)
[3]; P. aeruginosa ATCC 27853 spontaneous mutant, AA139 selection 4X, plate 1, colony 3, drug-free passage 5
  MIC, broth microdilution: 8 µg/mL (≈ 18.4 µM)
[3]; P. aeruginosa ATCC 27853 spontaneous mutant, AA139 selection 4X, plate 1, colony 4, drug-free passage 1
  MIC, broth microdilution: 8 µg/mL (≈ 18.4 µM)
[3]; P. aeruginosa ATCC 27853 spontaneous mutant, AA139 selection 4X, plate 1, colony 4, drug-free passage 5
  MIC, broth microdilution: 4 µg/mL (≈ 9.19 µM)
[3]; P. aeruginosa ATCC 27853 spontaneous mutant, AA139 selection 4X, plate 1, colony 5, drug-free passage 1
  MIC, broth microdilution: 8 µg/mL (≈ 18.4 µM)
[3]; P. aeruginosa ATCC 27853 spontaneous mutant, AA139 selection 4X, plate 1, colony 5, drug-free passage 5
  MIC, broth microdilution: 4 µg/mL (≈ 9.19 µM)
[3]; P. aeruginosa ATCC 27853 spontaneous mutant, AA139 selection 4X, plate 1, colony 6, drug-free passage 1
  MIC, broth microdilution: 8 µg/mL (≈ 18.4 µM)
[3]; P. aeruginosa ATCC 27853 spontaneous mutant, AA139 selection 4X, plate 1, colony 6, drug-free passage 5
  MIC, broth microdilution: 4 µg/mL (≈ 9.19 µM)
[3]; P. aeruginosa ATCC 27853 spontaneous mutant, AA139 selection 4X, plate 2, colony 1, drug-free passage 1
  MIC, broth microdilution: 4, 4 µg/mL
[3]; P. aeruginosa ATCC 27853 spontaneous mutant, AA139 selection 4X, plate 2, colony 1, drug-free passage 5
  MIC, broth microdilution: 4, 4 µg/mL
[3]; P. aeruginosa ATCC 27853 spontaneous mutant, AA139 selection 4X, plate 2, colony 2, drug-free passage 1
  MIC, broth microdilution: 4, 4 µg/mL
[3]; P. aeruginosa ATCC 27853 spontaneous mutant, AA139 selection 4X, plate 2, colony 2, drug-free passage 5
  MIC, broth microdilution: 4, 4 µg/mL
[3]; P. aeruginosa ATCC 27853 spontaneous mutant, AA139 selection 4X, plate 2, colony 3, drug-free passage 1
  MIC, broth microdilution: 4, 4 µg/mL
[3]; P. aeruginosa ATCC 27853 spontaneous mutant, AA139 selection 4X, plate 2, colony 3, drug-free passage 5
  MIC, broth microdilution: 4, 4 µg/mL
[3]; P. aeruginosa ATCC 27853 spontaneous mutant, AA139 selection 4X, plate 2, colony 4, drug-free passage 1
  MIC, broth microdilution: 4, 4 µg/mL
[3]; P. aeruginosa ATCC 27853 spontaneous mutant, AA139 selection 4X, plate 2, colony 4, drug-free passage 5
  MIC, broth microdilution: 4, 4 µg/mL
[3]; P. aeruginosa ATCC 27853 spontaneous mutant, AA139 selection 8X, plate 1, colony 1, drug-free passage 1
  MIC, broth microdilution: 8 µg/mL (≈ 18.4 µM)
[3]; P. aeruginosa ATCC 27853 spontaneous mutant, AA139 selection 8X, plate 1, colony 1, drug-free passage 5
  MIC, broth microdilution: 4 µg/mL (≈ 9.19 µM)
[3]; P. aeruginosa ATCC 27853 spontaneous mutant, AA139 selection 8X, plate 1, colony 2, drug-free passage 1
  MIC, broth microdilution: 8, 8 µg/mL
[3]; P. aeruginosa ATCC 27853 spontaneous mutant, AA139 selection 8X, plate 1, colony 2, drug-free passage 5
  MIC, broth microdilution: 8, 8 µg/mL
[3]; P. aeruginosa ATCC 27853 spontaneous mutant, AA139 selection 8X, plate 1, colony 3, drug-free passage 1
  MIC, broth microdilution: 8, 8 µg/mL
[3]; P. aeruginosa ATCC 27853 spontaneous mutant, AA139 selection 8X, plate 1, colony 3, drug-free passage 5
  MIC, broth microdilution: 8, 8 µg/mL
[3]; P. aeruginosa ATCC 27853 spontaneous mutant, AA139 selection 8X, plate 1, colony 4, drug-free passage 1
  MIC, broth microdilution: 8, 8 µg/mL
[3]; P. aeruginosa ATCC 27853 spontaneous mutant, AA139 selection 8X, plate 1, colony 4, drug-free passage 5
  MIC, broth microdilution: 8, 8 µg/mL
[3]; P. aeruginosa ATCC 27853 spontaneous mutant, AA139 selection 8X, plate 1, colony 5, drug-free passage 1
  MIC, broth microdilution: 8, 8 µg/mL
[3]; P. aeruginosa ATCC 27853 spontaneous mutant, AA139 selection 8X, plate 1, colony 5, drug-free passage 5
  MIC, broth microdilution: 8, 8 µg/mL
[3]; P. aeruginosa UNT 138-1 parent strain not exposed to drug
  MIC, broth microdilution: 4 µg/mL (≈ 9.19 µM)
[3]; P. aeruginosa UNT 138-1 spontaneous mutant, AA139 selection 4X, plate 1, colony 1, drug-free passage 1
  MIC, broth microdilution: 4 µg/mL (≈ 9.19 µM)
[3]; P. aeruginosa UNT 138-1 spontaneous mutant, AA139 selection 4X, plate 1, colony 1, drug-free passage 5
  MIC, broth microdilution: 8 µg/mL (≈ 18.4 µM)
[3]; P. aeruginosa UNT 138-1 spontaneous mutant, AA139 selection 4X, plate 1, colony 2, drug-free passage 1
  MIC, broth microdilution: 4, 4 µg/mL
[3]; P. aeruginosa UNT 138-1 spontaneous mutant, AA139 selection 4X, plate 1, colony 2, drug-free passage 5
  MIC, broth microdilution: 4, 4 µg/mL
[3]; P. aeruginosa UNT 138-1 spontaneous mutant, AA139 selection 4X, plate 1, colony 3, drug-free passage 1
  MIC, broth microdilution: 4 µg/mL (≈ 9.19 µM)
[3]; P. aeruginosa UNT 138-1 spontaneous mutant, AA139 selection 4X, plate 1, colony 3, drug-free passage 5
  MIC, broth microdilution: 8 µg/mL (≈ 18.4 µM)
[3]; P. aeruginosa UNT 138-1 spontaneous mutant, AA139 selection 4X, plate 1, colony 4, drug-free passage 1
  MIC, broth microdilution: 8, 8 µg/mL
[3]; P. aeruginosa UNT 138-1 spontaneous mutant, AA139 selection 4X, plate 1, colony 4, drug-free passage 5
  MIC, broth microdilution: 8, 8 µg/mL
[3]; P. aeruginosa UNT 138-1 spontaneous mutant, AA139 selection 4X, plate 1, colony 5, drug-free passage 1
  MIC, broth microdilution: 4, 4 µg/mL
[3]; P. aeruginosa UNT 138-1 spontaneous mutant, AA139 selection 4X, plate 1, colony 5, drug-free passage 5
  MIC, broth microdilution: 4, 4 µg/mL
[3]; P. aeruginosa UNT 138-1 spontaneous mutant, AA139 selection 4X, plate 1, colony 6, drug-free passage 1
  MIC, broth microdilution: 4, 4 µg/mL
[3]; P. aeruginosa UNT 138-1 spontaneous mutant, AA139 selection 4X, plate 1, colony 6, drug-free passage 5
  MIC, broth microdilution: 4, 4 µg/mL
[3]; P. aeruginosa UNT 138-1 spontaneous mutant, AA139 selection 4X, plate 1, colony 7, drug-free passage 1
  MIC, broth microdilution: 4, 4 µg/mL
[3]; P. aeruginosa UNT 138-1 spontaneous mutant, AA139 selection 4X, plate 1, colony 7, drug-free passage 5
  MIC, broth microdilution: 4, 4 µg/mL
[3]; P. aeruginosa UNT 138-1 spontaneous mutant, AA139 selection 4X, plate 2, colony 1, drug-free passage 1
  MIC, broth microdilution: 8, 8 µg/mL
[3]; P. aeruginosa UNT 138-1 spontaneous mutant, AA139 selection 4X, plate 2, colony 1, drug-free passage 5
  MIC, broth microdilution: 8, 8 µg/mL
[3]; P. aeruginosa UNT 138-1 spontaneous mutant, AA139 selection 4X, plate 2, colony 2, drug-free passage 1
  MIC, broth microdilution: 4, 4 µg/mL
[3]; P. aeruginosa UNT 138-1 spontaneous mutant, AA139 selection 4X, plate 2, colony 2, drug-free passage 5
  MIC, broth microdilution: 4, 4 µg/mL
[3]; P. aeruginosa UNT 138-1 spontaneous mutant, AA139 selection 4X, plate 2, colony 3, drug-free passage 1
  MIC, broth microdilution: 4, 4 µg/mL
[3]; P. aeruginosa UNT 138-1 spontaneous mutant, AA139 selection 4X, plate 2, colony 3, drug-free passage 5
  MIC, broth microdilution: 4, 4 µg/mL
[3]; P. aeruginosa UNT 138-1 spontaneous mutant, AA139 selection 4X, plate 2, colony 4, drug-free passage 1
  MIC, broth microdilution: 4, 4 µg/mL
[3]; P. aeruginosa UNT 138-1 spontaneous mutant, AA139 selection 4X, plate 2, colony 4, drug-free passage 5
  MIC, broth microdilution: 4, 4 µg/mL
[3]; P. aeruginosa UNT 138-1 spontaneous mutant, AA139 selection 4X, plate 2, colony 5, drug-free passage 1
  MIC, broth microdilution: 4, 4 µg/mL
[3]; P. aeruginosa UNT 138-1 spontaneous mutant, AA139 selection 4X, plate 2, colony 5, drug-free passage 5
  MIC, broth microdilution: 4, 4 µg/mL
[3]; P. aeruginosa UNT 138-1 spontaneous mutant, AA139 selection 4X, plate 2, colony 6, drug-free passage 1
  MIC, broth microdilution: 4, 4 µg/mL
[3]; P. aeruginosa UNT 138-1 spontaneous mutant, AA139 selection 4X, plate 2, colony 6, drug-free passage 5
  MIC, broth microdilution: 4, 4 µg/mL
[3]; P. aeruginosa UNT 138-1 spontaneous mutant, AA139 selection 4X, plate 2, colony 7, drug-free passage 1
  MIC, broth microdilution: 4, 4 µg/mL
[3]; P. aeruginosa UNT 138-1 spontaneous mutant, AA139 selection 4X, plate 2, colony 7, drug-free passage 5
  MIC, broth microdilution: 4, 4 µg/mL
[3]; P. aeruginosa UNT 138-1 spontaneous mutant, AA139 selection 8X, plate 1, colony 1, drug-free passage 1
  MIC, broth microdilution: 4, 4 µg/mL
[3]; P. aeruginosa UNT 138-1 spontaneous mutant, AA139 selection 8X, plate 1, colony 1, drug-free passage 5
  MIC, broth microdilution: 4, 4 µg/mL
[3]; P. aeruginosa UNT 138-1 spontaneous mutant, AA139 selection 8X, plate 1, colony 2, drug-free passage 1
  MIC, broth microdilution: 4, 4 µg/mL
[3]; P. aeruginosa UNT 138-1 spontaneous mutant, AA139 selection 8X, plate 1, colony 2, drug-free passage 5
  MIC, broth microdilution: 4, 4 µg/mL
[3]; P. aeruginosa UNT 138-1 spontaneous mutant, AA139 selection 8X, plate 1, colony 3, drug-free passage 1
  MIC, broth microdilution: 4, 4 µg/mL
[3]; P. aeruginosa UNT 138-1 spontaneous mutant, AA139 selection 8X, plate 1, colony 3, drug-free passage 5
  MIC, broth microdilution: 4, 4 µg/mL
[3]; P. aeruginosa UNT 138-1 spontaneous mutant, AA139 selection 8X, plate 1, colony 4, drug-free passage 1
  MIC, broth microdilution: 4, 4 µg/mL
[3]; P. aeruginosa UNT 138-1 spontaneous mutant, AA139 selection 8X, plate 1, colony 4, drug-free passage 5
  MIC, broth microdilution: 4, 4 µg/mL
[3]; P. aeruginosa UNT 138-1 spontaneous mutant, AA139 selection 8X, plate 1, colony 5, drug-free passage 1
  MIC, broth microdilution: 4 µg/mL (≈ 9.19 µM)
[3]; P. aeruginosa UNT 138-1 spontaneous mutant, AA139 selection 8X, plate 1, colony 5, drug-free passage 5
  MIC, broth microdilution: 8 µg/mL (≈ 18.4 µM)
[3]; P. aeruginosa UNT 138-1 spontaneous mutant, AA139 selection 8X, plate 2, colony 1, drug-free passage 1
  MIC, broth microdilution: 4 µg/mL (≈ 9.19 µM)
[3]; P. aeruginosa UNT 138-1 spontaneous mutant, AA139 selection 8X, plate 2, colony 1, drug-free passage 5
  MIC, broth microdilution: 8 µg/mL (≈ 18.4 µM)
